{"source": "patent US10285972B2", "about": "“Trans-2-nonadecyl-4-hydroxymethyl-1,3-dioxolane and producing methodthereof” (Greenyn Biotechnology Co., Ltd, priority 2014, dated 2019)", "key": {"[1]": {"experiment": "Body weight and food intake of mice fed 45% high-fat diet for 8 weeks", "assay_type": "in vivo, C57BL/6 mice", "details": "for Final wight: mean±SE", "protocol": "(§1) The 4 weeks-old male C57BL/6 mice were divided into 5 groups and treated with different feeding conditions, wherein the group 1 was the blank control fed with normal diet and water, the group 2 was fed with 45% high-fat diet and water, the group 3 was fed with 45% high-fat diet, water and 10 mg/Kg the compound TNHD, the group 4 was fed with 45% high-fat diet, water and 20 mg/Kg the compound TNHD, and the group 5 was fed with 45% high-fat diet, water and 200 mg/Kg Silymarin. Feeding for 8 weeks, and then all the mice were sacrificed.\nAt the end of the experiment, taking photographs of the each group were shown as FIG. 4.\nThe body weight and food intake in the each group were recorded in the table 1, wherein the data is expressed as the mean±SE."}, "liver": {"system": "liver", "experiment": "Organ weights, liver appearance and liver staining (H&E, Surius red) of mice fed 45% high-fat diet", "assay_type": "in vivo, C57BL/6 mice", "details": "for Liver weight: 8 weeks", "protocol": "as §1\nThe weights of liver, kidney and spleen of the mice in the each group were measured and recorded in table 2. The macroscopic appearance of the liver from the mice of the each group was shown as FIG. 6. Furthermore, the liver collected from the sacrificed mice in each groups was fixed with formalin. After the fixation, the liver tissue of the each group was paraffin-embedded for histology section and stained by H&E and Surius red for analysis."}, "[2]": {"system": "fatty liver and obesity animal model prepared by ethanol-containing diet (Lieber-DeCarli)", "experiment": "Fatty liver and obesity animal model prepared by ethanol-containing diet (Lieber-DeCarli)", "assay_type": "in vivo", "details": "FIGS. 9 to 14"}}, "data": [{"molecule": "CCCCCCCCCCCCCCCCCCC[C@@H]1OC[C@@H](CO)O1", "note": "(relative stereo) [TNHD, trans-2-nonadecyl-4-hydroxymethyl-1,3-dioxolane]", "values": [{"measurement": "Effect on body weight, high dose compared with low dose", "setting": "[1]; 45% high-fat diet mice, 20 mg/Kg vs 10 mg/Kg", "result": "high dose is more effective"}, {"measurement": "Effect on body weight increase of obesity mouse", "setting": "[1]; 45% high-fat diet mice, 10 or 20 mg/Kg, 8 weeks", "result": "prevent and inhibit the body weight of obesity mouse to increase"}, {"measurement": "Effect on weight loss compared with Silymarin", "setting": "[1]; 45% high-fat diet mice, Silymarin 200 mg/Kg", "result": "more effective to weight loss than Silymarin"}, {"measurement": "Final wight", "setting": "[1]; group 3: 45% high-fat diet + 10 mg/Kg TNHD, 8 weeks", "result": "29.8 ± 2.0", "unit": "g"}, {"measurement": "Final wight", "setting": "[1]; group 4: 45% high-fat diet + 20 mg/Kg TNHD, 8 weeks", "result": "28.1 ± 1.6", "unit": "g"}, {"measurement": "Lipid accumulation in the liver (H&E and Surius red staining)", "setting": "liver; 45% high-fat diet mice, FIGS. 7 and 8", "result": "inhibit the lipid accumulation in the liver effectively"}, {"measurement": "Liver weight", "setting": "liver; group 3: 45% high-fat diet + 10 mg/Kg TNHD", "result": "5.23 ± 0.84", "unit": "g"}, {"measurement": "Macroscopic appearance of the liver", "setting": "liver; group 3 or group 4 (10 or 20 mg/Kg), 45% high-fat diet, FIG. 6", "result": "the liver shows the red color and has smooth surface"}, {"measurement": "Liver weight", "setting": "liver; group 4: 45% high-fat diet + 20 mg/Kg TNHD", "result": "5.63 ± 0.61", "unit": "g"}, {"measurement": "Effect on obesity, fatty liver or liver damage caused by alcohol", "setting": "[2]", "result": "effective to treat or/and prevent obesity, fatty liver or liver damage caused by alcohol"}]}]}
